Source: patent US20040157738A1, “Novel oxygen containing fused cyclic derivatives and herbicidal, desiccant and defoliate compositions containing them” (ISHIHARA SANGYO KAISHA, LTD., priority 2003, published 2004)

Experiments:
Type in all cases: in vivo
[1] = tested on: rice (Oryza sativa L.: ORYSA); experiment: Test Example 3: water application herbicidal activity, paddy (growth controlling degree); details: rate 63 g a.i./ha, paddy pot, rice of 2 leaf stage transplanted, treated on the 4th day after transplantation; for pest or weed control at 63 g/ha: Oryza sativa, 504 h
Text: (§1) Paddy field soil was put into a {fraction (1/1,000,000)} ha pot, and seeds of barnyardgrass (Echinochloa oryzicola: ECHOR) and japanese bulrush (Scirpus juncoides: SCPJO) were sown and slightly covered with soil. Then the pot was left to stand still in a greenhouse in a state where the depth of flooding water was from 0.5 to 1 cm, and one day later, tubers of japanese ribbon wapato (Sagittaria pygmaea: SAGPY) were planted. Thereafter, the depth of flooding water was maintained at a level of from 3 to 4 cm, and when barnyardgrass and japanese bulrush reached a 0.5 leaf stage, an aqueous diluted solution of a wettable powder or emulsifiable concentrate having the compound of the present invention formulated in accordance with a usual formulation method, was uniformly applied under submerged condition by a pipette so that the dose of the active ingredient would be at a predetermined level. On the other hand, paddy filed soil was put into a {fraction (1/1,000,000)} ha pot and puddled and leveled, and the depth of flooding water was from 3 to 4 cm. One day later, rice (Oryza sativa L.: ORYSA) of 2 leaf stage was transplanted in a depth of 3 cm. On the 4th day after the transplantation, the compound of the present invention was applied in the same manner as described above. On the 14th day after the application of the herbicide, the growth of barnyardgrass, japanese burlush and japanese ribbon wapato was visually observed and on the 21st day after the application of the herbicide, the growth of rice was visually observed, and the herbicidal effects were evaluated by growth controlling degrees (%) ranging from 0 (equivalent to the untreated control) to 100 (complete kill), whereby the results shown in Table 13, were obtained. Compound Nos. in Table 13 correspond to Compound Nos. in Table 1 to 7 given hereinbefore.

[2] = tested on: japanese bulrush (Scirpus juncoides: SCPJO); experiment: as above; details: rate 63 g a.i./ha, water application under submerged condition, paddy pot, japanese bulrush at 0.5 leaf stage; for pest or weed control at 63 g/ha: Schoenoplectiella juncoides, 336 h
Text: as §1

[3] = tested on: japanese ribbon wapato (Sagittaria pygmaea: SAGPY); experiment: as above; details: rate 63 g a.i./ha; water application under submerged condition, paddy pot; tubers of japanese ribbon wapato planted
Text: as §1

[4] = tested on: barnyardgrass (Echinochloa oryzicola: ECHOR); experiment: as above; details: rate 63 g a.i./ha, water application under submerged condition, paddy pot, barnyardgrass at 0.5 leaf stage; for pest or weed control at 63 g/ha: Echinochloa oryzicola, 336 h
Text: as §1

[5] = tested on: velvetleaf (Abutilon theophrasti): ABUTH; experiment: Test Example 1: pre-emergence herbicidal activity (growth controlling degree); details: 20th to 21st day after application
Text: (§2) Upland field soil was put into a 1/170,000 ha pot, and seeds of various plants [1. barnyardgrass (Echinochloa crus-galli L.): ECHCC, 2. crabgrass (Digitaria sanguinalis L.): DIGSA, 3. green foxtail (Setaria viridis L.): SETVI, 4. redroot pigweed (Amaranthus retroflexus L.): AMARE, 5. prickly sida (Sida spinosa L.): SIDSP, 6. velvetleaf (Abutilon theophrasti): ABUTH, 7. common cocklebur (Xanthium strumarium L.): XANST, 8. rice (Oryza sativa L.): ORYSA, 9. wheat (Triticum aestivum L.): TRZAX, 10. corn (Zea mays L.): ZEAMX, 11. soybean (Glycine max Merr.): GLXMA] were sown. Then, one day after the sowing, a wettable powder or emulsifiable concentrate having the compound of the present invention formulated in accordance with a usual formulation method, was weighed so that the active ingredient would be a predetermined amount, and diluted with water in an amount of 500 L/ha. The herbicide adjusted was applied by a small size sprayer for pre-emergence treatment. On the 20th to 21st day after the application of the herbicide, the growth of the respective plants was visually observed, and the herbicidal effects were evaluated by growth controlling degrees (%) ranging from 0 (equivalent to the untreated control) to 100 (complete kill), whereby the results shown in Table 11, were obtained. Compound Nos. in Table 11 correspond to Compound Nos. in Table 1 to 7 given hereinbefore.

[6] = tested on: barnyardgrass (Echinochloa crus-galli L.): ECHCC; experiment: as above; details: 20th to 21st day after application
Text: as §2

[7] = tested on: common cocklebur (Xanthium strumarium L.): XANST; experiment: as above; details: 20th to 21st day after application
Text: as §2

[8] = tested on: corn (Zea mays L.): ZEAMX; experiment: as above; details: 20th to 21st day after application
Text: as §2

[9] = tested on: redroot pigweed (Amaranthus retroflexus L.): AMARE; experiment: as above; details: 20th to 21st day after application
Text: as §2

[10] = tested on: green foxtail (Setaria viridis L.): SETVI; experiment: as above; details: 20th to 21st day after application
Text: as §2

[11] = tested on: rice (Oryza sativa L.): ORYSA; experiment: as above; details: 20th to 21st day after application
Text: as §2

[12] = tested on: soybean (Glycine max Merr.): GLXMA; experiment: as above; details: 20th to 21st day after application
Text: as §2

[13] = tested on: crabgrass (Digitaria sanguinalis L.): DIGSA; experiment: as above; details: 20th to 21st day after application
Text: as §2

[14] = tested on: prickly sida (Sida spinosa L.): SIDSP; experiment: as above; details: 20th to 21st day after application
Text: as §2

Structure (SMILES) | Water Application Herbicidal Activity SAGPY (growth controlling degree) [3] [%] | growth controlling degree, ABUTH ([5]; 250 g a.i./ha) [%] | growth controlling degree, ECHCG ([6]; 250 g a.i./ha) [%] | growth controlling degree, XANST ([7]; 250 g a.i./ha) [%] | growth controlling degree, ZEAMX ([8]; 250 g a.i./ha) [%] | growth controlling degree, AMARE ([9]; 250 g a.i./ha) [%] | growth controlling degree, SETVI ([10]; 250 g a.i./ha) [%] | growth controlling degree, ORYSA ([11]; 250 g a.i./ha) [%] | growth controlling degree, GLXMA ([12]; 250 g a.i./ha) [%] | growth controlling degree, DIGSP ([13]; 250 g a.i./ha) [%] | growth controlling degree, SIDSP ([14]; 250 g a.i./ha) [%] | pest or weed control at 63 g/ha [1] [%] | pest or weed control at 63 g/ha [2] [%] | pest or weed control at 63 g/ha [4] [%] | growth controlling degree, ABUTH ([5]; 125 g a.i./ha) [%] | growth controlling degree, ECHCG ([6]; 125 g a.i./ha) [%] | growth controlling degree, XANST ([7]; 125 g a.i./ha) [%] | growth controlling degree, ZEAMX ([8]; 125 g a.i./ha) [%] | growth controlling degree, AMARE ([9]; 125 g a.i./ha) [%] | growth controlling degree, SETVI ([10]; 125 g a.i./ha) [%] | also measured
CC1CCc2c(c(Cl)cc(F)c2-c2nn3c(c2Cl)CCCC3)O1 (centres unmarked) [Compound 1-85] | 100 | 30 | 60 | 0 | 10 | 95 | 80 | 10 | 0 | 60 | 20 | – | – | – | – | – | – | – | – | – | Water Application Herbicidal Activity ORYSA (growth controlling degree) [1]: 10%; Water Application Herbicidal Activity SCPJO (growth controlling degree) [2]: 98%; Water Application Herbicidal Activity ECHOR (growth controlling degree) [4]: 100%
Fc1cc(Cl)c2c(c1-c1ncc(C(F)(F)F)cc1Cl)CCCO2 [Compound 7-2, 3-chloro-2-(8-chloro-6-fluoro-3,4-dihydro-2H-1-benzopyran-5-yl)-5-(trifluoromethyl)-pyridine] | – | 100 | 100 | 50 | 60 | 100 | 100 | 50 | 50 | 100 | 100 | 0 | 98 | 100 | – | – | – | – | – | – | –
CCCCCC1CCc2c(c(Cl)cc(F)c2-c2nn(C)c(OC(F)F)c2Cl)O1 (centres unmarked) [Compound 1-101] | 100 | – | – | – | – | – | – | – | – | – | – | – | – | – | 60 | 80 | 30 | 40 | 100 | 100 | Water Application Herbicidal Activity ORYSA (growth controlling degree) [1]: 35%; Water Application Herbicidal Activity SCPJO (growth controlling degree) [2]: 50%; Water Application Herbicidal Activity ECHOR (growth controlling degree) [4]: 100%; growth controlling degree, ORYSA ([11]; 125 g a.i./ha): 30%; growth controlling degree, GLXMA ([12]; 125 g a.i./ha): 10%; growth controlling degree, DIGSP ([13]; 125 g a.i./ha): 100%; growth controlling degree, SIDSP ([14]; 125 g a.i./ha): 80%
Cn1nc(-c2c(F)cc(Cl)c3c2CCCO3)c(Cl)c1C(F)(F)F [Compound 1-2, 4-chloro-3-(8-chloro-6-fluoro-3,4-dihydro-2H-1-benzopyran-5-yl)-1-methyl-5-(trifluoromethyl)-1H-pyrazole] | 0 | – | – | – | – | – | – | – | – | – | – | 20 | 30 | 40 | 100 | 100 | 100 | 10 | 100 | 100 | growth controlling degree, ORYSA ([11]; 125 g a.i./ha): 20%; growth controlling degree, GLXMA ([12]; 125 g a.i./ha): 10%; growth controlling degree, DIGSP ([13]; 125 g a.i./ha): 100%; growth controlling degree, SIDSP ([14]; 125 g a.i./ha): 100%
CC1CCc2c(c(Cl)cc(F)c2-c2nn(C)c(C(F)(F)F)c2Cl)O1 (centres unmarked) [Compound 1-8] | 40 | 100 | 50 | 10 | 10 | 100 | 95 | 20 | 10 | 98 | 98 | 10 | 60 | 60 | – | – | – | – | – | – | –
Cn1nc(-c2c(F)cc(Cl)c3c2CCC(c2ccccc2)O3)c(Cl)c1OC(F)F (centres unmarked) [Compound 1-42] | 100 | 50 | 100 | 0 | 10 | 100 | 100 | 40 | 10 | 100 | 80 | 35 | 98 | 100 | – | – | – | – | – | – | –
Fc1cc(Cl)c2c(c1-c1nn3c(c1Cl)CCCC3)CCCO2 [Compound 1-79, 3-chloro-2-(8-chloro-6-fluoro-3,4-dihydro-2H-1-benzopyran-5-yl)-4,5,6,7-tetrahydro-pyrazolo[1,5-a]pyridine] | 100 | 60 | 100 | – | 10 | 100 | – | 30 | 30 | – | 80 | 40 | 100 | 100 | – | – | – | – | – | – | –
Cn1nc(-c2c(F)cc(Cl)c3c2CCCO3)c(Cl)c1OC(F)F [Compound 1-33, 4-chloro-3-(8-chloro-6-fluoro-3,4-dihydro-2H-1-benzopyran-5-yl)-5-(difluoromethoxy)-1-methyl-1H-pyrazole] | 100 | – | – | – | – | – | – | – | – | – | – | 80 | 100 | 100 | 100 | 100 | 70 | 100 | 100 | 100 | growth controlling degree, ORYSA ([11]; 125 g a.i./ha): 70%; growth controlling degree, GLXMA ([12]; 125 g a.i./ha): 40%; growth controlling degree, DIGSP ([13]; 125 g a.i./ha): 100%; growth controlling degree, SIDSP ([14]; 125 g a.i./ha): 100%
CC1CCc2c(c(Cl)cc(F)c2-c2nn(C)c(OC(F)F)c2Cl)O1 (centres unmarked) [Compound 1-39] | 100 | 100 | 100 | 100 | 70 | 100 | 100 | 50 | 30 | 100 | 100 | 60 | 100 | 100 | – | – | – | – | – | – | –
